According to paper PMC3257078, “Predicting Antitumor Activity of Peptides by Consensus of Regression Models Trained on a Small Data Sample” (International Journal of Molecular Sciences, 2011):
Like-named read-outs stand apart in the source and are kept apart here.

Tests used:
SW 620 (colon carcinoma) [1] = settings: c = 10^-4 M, cited from earlier work
Text: Table 3 Growth inhibition effects of OGF-related peptides. | column: PG(%) ^a / SW620

MCF-7 (breast carcinoma) [2] = settings: c = 10^-4 M, cited from earlier work
Text: Table 3 Growth inhibition effects of OGF-related peptides. | column: PG(%) ^a / MCF-7

[3] = tested on: HeLa (cervical carcinoma); settings: c = 10^-4 M, cited from earlier work
Text: Table 3 Growth inhibition effects of OGF-related peptides. | column: PG(%) ^a / HeLa

SW 620 (colon carcinoma) [4] = test: Proliferation assay (MTT), SW 620 cells; type: cell-based; settings: c = 10^-4 M, 72 h incubation, absorbance 570 nm, quadruplicate in three individual experiments
Text: (§1) Peptides 10, 12–14 as well as trisulfoxide derivative 15 were screened for possible antiproliferative effects on three cell lines: SW 620 (colon carcinoma), MCF-7 (breast carcinoma) and HeLa (cervical carcinoma), according to the previously published procedure. Table 3 summarizes activities found for tested peptides, expressed as percentage of growth (PG) of three cell lines, together with values for OGF and three OGF-related peptides proposed by the SVM radial basis function kernel (RBF). […] Therefore, the approach presented here managed to select peptides with improved biological activities from virtual library.
(§2) The biological potential of prepared compounds has been tested in the Laboratory for experimental therapy (Ruđer Bošković Institute) following the previously published procedure. Briefly, MCF-7, SW 620 and HeLa cells were cultured as monolayers and maintained in Dulbecco’s modified Eagle medium (DMEM), supplemented with 10% fetal bovine serum (FBS), 2mM L-glutamine, 100 U/mL penicillin and 100 μg/mL streptomycin in a humidified atmosphere with 5% CO2 at 37 °C. The panel cell lines were inoculated onto a series of standard 96-well microtiter plates on day 0, at 1 × 10^4 to 3 × 10^4 cells/mL, depending on the doubling times of specific cell line. Test agents were then added in five, 10-fold dilutions (10^−8 to 10^−4 M) and incubated for a further 72 hours. Working dilutions were freshly prepared on the day of testing. The solvent was also tested for eventual inhibitory activity by adjusting its concentration to be the same as in working concentrations. After 72 hours of incubation the cell growth rate was evaluated by performing the MTT assay. For this purpose the substance treated medium was discarded and MTT was added to each well at a concentration of 20 μg/40 μL. After four hours of incubation the precipitates were dissolved in 160 μL of dimethylsulphoxide (DMSO). The absorbance that is directly proportional to the number of living, metabolically active cells was measured on a microplate reader at 570 nm. Each test point was performed in quadruplicate in three individual experiments.

MCF-7 (breast carcinoma) [5] = test: Proliferation assay (MTT), MCF-7 cells; type: cell-based; settings: c = 10^-4 M, 72 h incubation, absorbance 570 nm, quadruplicate in three individual experiments
Text: as §1, §2

[6] = tested on: HeLa (cervical carcinoma); test: Proliferation assay (MTT), HeLa cells; type: cell-based; settings: c = 10^-4 M, 72 h incubation, absorbance 570 nm, quadruplicate in three individual experiments
Text: as §1, §2

[7] = Oxidation of Met residues to sulfoxide during acid Boc deprotection; type: physicochemical; settings: cold TFA-H2O (9:1), ice bath, 5 min, full scan MS: only traces of 11 (m/z 750), oxidized forms m/z 766, 782, 798
Method: Synthesis of methionine rich peptides 10–14 was based on the 2 + 2 and 2 + 3 coupling between Boc-protected dipeptides 1–4 and H-Met-Met-OH or H-Met-Met-Met-OH (Scheme 1). Different methods of peptide bond formation were tested; finally peptides 5–7 were obtained by the DCC/HOSu method, activation with HATU yielded Ada-containing pentapeptide 8, while pentapeptide 9 was obtained by the mixed anhydride method (details in the Experimental section). Finally, deprotection of the Boc group was performed by acid hydrolysis and extra precautions were taken due to the known susceptibility of methionine residue toward acid-promoted oxidation to sulfoxide. Therefore, deprotection step was performed in ice bath, crude product was immediately purified by the HPLC and residual acid removed by passing through the short C18 column. […] During the purification procedure, only oxidized product 15 was isolated. All prepared compounds were characterized by NMR spectroscopy and deprotected compounds 10 and 12–15 additionally by tandem mass spectrometry and HRMS. The main feature of MS/MS spectra of the molecular [M + H]^+ ions of all peptides is high abundance of Y” and B-type fragment ions (Figure S1, Supplementary Information).
Boc-protected peptides 5–9 were treated with cold TFA-H2O (9:1) mixture in ice bath for 5 min. […]

| Substance | PG(%) SW620 (percentage of growth) (SW 620 (colon carcinoma) [1]; training set peptides) | PG(%) MCF-7 (percentage of growth) (MCF-7 (breast carcinoma) [2]; training set peptides) | PG(%) HeLa (percentage of growth) ([3]; training set peptides) | PG(%) SW620 (percentage of growth) (SW 620 (colon carcinoma) [4]) | PG(%) MCF-7 (percentage of growth) (MCF-7 (breast carcinoma) [5]) | PG(%) HeLa (percentage of growth) [6] | other results |
| --- | --- | --- | --- | --- | --- | --- | --- |
| H-Tyr-(S)-Ada-Gly-OH | 85% | 100% | 90% | – | – | – | – |
| H-Phe-Ada-Met(O)-Met(O)-Met(O)-OH [Compound 15] | – | – | – | 77% | 82% | 64% | – |
| H-Tyr-Ada-Gly-Phe-Met-OH | 85% | 100% | 85% | – | – | – | – |
| H-Phe-Gly-Met-Met-Met-OH [Compound 12] | – | – | – | 95% | 86% | 86% | – |
| H-Tyr-(R)-Ada-Gly-OH | 87% | 100% | 89% | – | – | – | – |
| H-Tyr-Ada-Gly-Phe-Phe-OH | – | – | – | – | – | – | PG(%) SW620 (percentage of growth) (SW 620 (colon carcinoma) [1]): 38%; PG(%) MCF-7 (percentage of growth) (MCF-7 (breast carcinoma) [2]): 81%; PG(%) HeLa (percentage of growth) [3]: 71% |
| H-Phe-Ala-Met-Met-OH [Compound 13] | – | – | – | 86% | 68% | 71% | – |
| H-Tyr-Ala-Met-Met-Met-OH [Compound 14] | – | – | – | 97% | 71% | 91% | – |
| H-Tyr-(S)-Ada-OH | 72% | 100% | 92% | – | – | – | – |
| H-Tyr-Gly-Gly-Phe-Met-OH [OGF, native opioid growth factor (OGF), Met-enkephalin] | – | – | – | 85% | 92% | 88% | – |
| H-Tyr-(R)-Ada-OH | 88% | 99% | 97% | – | – | – | – |
| H-Phe-Ada-Gly-Phe-Phe-OH | – | – | – | – | – | – | PG(%) SW620 (percentage of growth) (SW 620 (colon carcinoma) [1]): 39%; PG(%) MCF-7 (percentage of growth) (MCF-7 (breast carcinoma) [2]): 41%; PG(%) HeLa (percentage of growth) [3]: 23% |
| H-Phe-Ada-Met-Met-Met-OH [Compound 11, Ada-containing pentapeptide, only traces seen; oxidized to 15 during deprotection] | – | – | – | – | – | – | Susceptibility of Met residues to oxidation (sulfoxide formation) [7]: extreme susceptibility to oxidation |
| H-Phe-Ala-Met-Met-Met-OH [Compound 10] | – | – | – | 100% | 74% | 88% | – |
| H-Phe-Ada-Gly-Phe-Met-OH | – | – | – | – | – | – | PG(%) SW620 (percentage of growth) (SW 620 (colon carcinoma) [1]): 35%; PG(%) MCF-7 (percentage of growth) (MCF-7 (breast carcinoma) [2]): 39%; PG(%) HeLa (percentage of growth) [3]: 49% |
